Patent publication US20210285004A1, “Bidirectional Constitutive Promoter and Uses, and Transfection Methods for B. Microti” (MJKS Research LLC, priority 2020, published 2021)

Legend:
B. microti [1] = assay: Promoter strength comparison by reporter gene analysis (RLU, luminometer); type: cell-based, Babesia microti; conditions: reporter gene construct, FIG. 5
Experimental: In FIG. 5, the improved strength of the Babesia promoter (here: B. microti or “BM”) compared to a strong constitutive promoter (here: PBANKA DHFR of SEQ ID NO:2) is shown.
The strength of a Babesia-based promoter (for example, without limitation, the BM-CTQ41297 promoter of SEQ ID NO:1) and that of a strong constitutive promoter (here: PBANKA DHFR, SEQ ID NO:2) are determined and compared, representative results are shown in FIG. 5. A promoter (SEQ ID NO:1, from B. microti or “BM”) is compared to PBANKA-DHFR (known to be a strong constitutive promoter), a blank/negative control, and, as a further negative control, human EF1b promoter. The promoter constructs are prepared as described in examples 1 and 4, respectively. Relative Light Units (RLU) are measured by luminometer. […] Similarly the constitutive promoter human EF1b is outperformed by a Babesia-based promoter, including e.g. by the B. microti promoter (as shown in FIG. 5). As determined by reporter gene analysis, the Babesia promoter is at least about 5 to 6 times stronger compared to PBANKA-DHFR (a promoter derived from a rodent malaria parasite Plasmodium berghei with strong constitutive activity commonly used for the expression of reporter genes in various apicomplexan parasites), see results shown in FIG. 5.

B. microti [2] = assay: Transient transfection of B. microti with promoter constructs, reporter expression by fluorescence microscopy; type: cell-based, Babesia microti; conditions: two days after transfection, infected RBC from C57BL/6J mice
Experimental: A transfection of parasites with a parasite promoter (here: B. microti & SEQ ID NO:1) is performed as follows. A schematic representation of the genomic location of the B. microti promoter of SEQ ID NO:1 (BM-CTQ41297 promoter) is shown in FIG. 1a. As shown in the figure, the promoter is flanked by the two different genes. The episomal constructs may be based on a standard cloning vector such as Bluescript (pBSK (+)) and modified for expression accordingly; the constructs used are shown schematically in FIG. 1b. As a negative control (B), B. microti parasites transfected with a blank vector without reporter gene insert (but with BM-CTQ41297 promoter and 3′UTR, compare SEQ ID NO: 35). […] Electroporation for both genes is performed as follows. […]
After electroporation, the parasites are immediately injected into C57BL/6J mice and after two days of transfection analyzed by fluorescence microscopy as follows: a drop of blood is collected in a 1.5 ml tube containing heparin from the tail of mice infected with transfected parasites. […] The transfected parasites are analyzed by fluorescence microscopy to check if transfected parasites express the reporter gene (here: GFP) using a fluorescence microscope, e.g. Axio Imager M2®, Zeiss®, Dublin, Calif.). The transfected parasites are reporter gene (e.g. here: GFP) positive as confirmed by fluorescence microscopy and shown in FIG. 1c, see C. […]

Substance: PBANKA-DHFR: Strong constitutive DHFR promoter from Plasmodium berghei, SEQ ID NO:2, 2262 bp [reference compound]
- RLU (Relative Light Unit) values (B. microti [1]): about 60 RLU
- reporter gene expression (GFP/mCherry fluorescence) (B. microti [2]): expression of GFP
